Results taken from patent US20050118226A1, “Methods for treating ACAT-related diseases” (priority 2003, published 2005).

System: APP
Experiment: Western blot of APP and fragments in formic acid brain extracts of hAPP mice
Assay type: in vivo, mouse
Procedure: For Western blot analyses, frozen hemispheres of non-transgenic littermates were homogenized in TBS buffer containing 5 mM EDTA, 1 mM 1,10-phenanthroline (ICN Biomedicals), 20 μM ALLN (BioMol) and a protease inhibitor mixture (Roche). Homogenates were centrifuged at 100000 g for 1 hour at +4° C. The supernatants were used for analyses of secreted APP forms and ApoE, while the pellets extracted with the homogenization buffer containing 1% Triton X-100 and 0.2% SDS. 120 μg of total protein were resolved on 4-12% or 12% NuPAGE Bis-Tris gels (Invitrogen) under reducing conditions, and Western blots were performed as described previously (Puglielli et al., 2001). For analysis of Notch-ICD (NICD), 250 μg of total protein was immunoprecipitated with an NICD-specific antibody (cleavage site (Val1744)-specific; Cell Signaling Technology) according to manufacturer's recommendations. […] Densitometric analyses were performed using the QuantityOne software package (Bio-Rad). Statistical significance was determined by Student's t test. […]

Compound: CCCCCCCC[C@H](SCCCCCC)C(=O)Nc1c(SC)cc(C)nc1SC [CP-113,818]
- full-length APP and APP C-terminal fragments C83 and C99: unchanged
- decrease of sAPP levels (adjusted to full-length APP): 60%
